Data as given in patent US10392368B2, “Pyrazolo and triazolo bicyclic compounds as JAK kinase inhibitors” (THERAVANCE BIOPHARMA R&D IP, LLC, priority 2017, dated 2019).
Like-named read-outs stand apart in the source and are kept apart here.

How the values were obtained:
JAK3 = target: T1, JAK3 (Homo sapiens, UniProt P52333); test: Biochemical JAK3 kinase assay (LanthaScreen); set-up: GST; purchased Life Technologies; conditions: for Ki: read-out: JAK 3 (pKi) (converted)
T1 sequence (P52333 1-1124): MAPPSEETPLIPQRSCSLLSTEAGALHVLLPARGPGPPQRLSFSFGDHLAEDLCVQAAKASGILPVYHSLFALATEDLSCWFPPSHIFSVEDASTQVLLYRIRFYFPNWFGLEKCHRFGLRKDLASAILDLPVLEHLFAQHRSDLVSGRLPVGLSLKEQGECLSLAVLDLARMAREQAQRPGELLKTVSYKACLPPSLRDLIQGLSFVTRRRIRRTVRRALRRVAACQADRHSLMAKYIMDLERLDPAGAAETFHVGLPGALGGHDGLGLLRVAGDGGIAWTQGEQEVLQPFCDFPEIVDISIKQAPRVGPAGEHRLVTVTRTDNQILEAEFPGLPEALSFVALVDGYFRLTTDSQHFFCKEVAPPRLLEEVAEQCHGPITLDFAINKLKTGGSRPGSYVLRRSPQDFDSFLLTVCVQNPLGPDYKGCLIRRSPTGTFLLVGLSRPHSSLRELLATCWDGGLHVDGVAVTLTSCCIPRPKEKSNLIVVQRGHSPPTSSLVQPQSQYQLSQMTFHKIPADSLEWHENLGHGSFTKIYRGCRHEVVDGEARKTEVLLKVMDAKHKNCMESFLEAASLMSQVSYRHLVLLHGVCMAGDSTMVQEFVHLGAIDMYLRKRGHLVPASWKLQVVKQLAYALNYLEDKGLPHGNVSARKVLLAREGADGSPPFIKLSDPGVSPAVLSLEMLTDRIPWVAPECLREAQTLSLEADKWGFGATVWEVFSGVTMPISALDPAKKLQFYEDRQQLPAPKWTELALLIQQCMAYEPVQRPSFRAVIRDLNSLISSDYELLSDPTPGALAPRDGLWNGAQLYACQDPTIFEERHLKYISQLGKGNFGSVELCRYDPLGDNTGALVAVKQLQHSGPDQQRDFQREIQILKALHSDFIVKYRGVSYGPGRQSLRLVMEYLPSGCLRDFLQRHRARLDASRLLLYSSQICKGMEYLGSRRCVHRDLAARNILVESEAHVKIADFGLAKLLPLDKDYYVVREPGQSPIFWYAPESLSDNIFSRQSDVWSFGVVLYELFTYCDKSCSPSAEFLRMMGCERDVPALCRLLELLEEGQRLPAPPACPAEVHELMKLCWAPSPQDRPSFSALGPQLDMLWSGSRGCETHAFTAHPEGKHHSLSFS
Method in brief: (§1)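 Values are pKi, calculated by Cheng-Prusoff from IC50 obtained by robust 4-parameter fitting of percent inhibition. The kinase reaction used GFP-STAT1 peptide in HEPES pH 7.5 buffer with MgCl2, EGTA and Brij-35, ATP-initiated after compound pre-incubation, 1 h at ambient temperature.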

JAK2 = target: T2, JAK2 (Homo sapiens, UniProt O60674); test: Biochemical JAK2 kinase assay (LanthaScreen); conditions: for Ki: read-out: JAK 2 (pKi) (converted)
T2 construct: GST; purchased Life Technologies
Method in brief: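 GST-tagged recombinant JAK2 pre-incubated 1 h at ambient temperature with compound and GFP-STAT1 peptide in HEPES pH 7.5/MgCl2 buffer, then ATP added for a 1 h reaction with 1% DMSO. TR-FRET read after EDTA and Tb-anti-pSTAT1 (pTyr701) addition; IC50 from 4-parameter fit, converted to pKi by Cheng-Prusoff.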

JAK1 = target: T3, JAK1 (Homo sapiens, UniProt P23458); test: Biochemical JAK1 kinase assay (LanthaScreen); conditions: for Ki: read-out: JAK 1 (pKi) (converted)
T3 construct: GST; purchased Life Technologies
Method in brief: as §1

[1] = test system: IL-2 stimulated pSTAT5 in Tall-1 T cells; test: Cellular JAK3 potency assay: inhibition of IL-2 stimulated pSTAT5 in Tall-1 T cells; assay type: cell-based, human; conditions: for IC50: Homo sapiens, read-out: Tall-1 (pIC50) (converted); for Tall-1 (pIC50): IL-2 stimulated pSTAT5 in Tall-1 T cells
Method in brief: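 Tall-1 human T cells (45,000/well) in phenol red-free DMEM with 10% FBS were preincubated with compound 1 h at 37 °C, then stimulated with IL-2 (final 300 ng/ml) for 30 min. Lysate pSTAT5 read by AlphaLisa; IC50 from inhibition curves, reported as pIC50 (mean±SD).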

Tyk2 = target: T4, Tyk2 (Homo sapiens, UniProt P29597); test: Biochemical Tyk2 kinase assay (LanthaScreen); conditions: for Ki: read-out: Tyk 2 (pKi) (converted)
T4 construct: GST; purchased Life Technologies
Method in brief: as §1

[2] = selectivity: difference of pKi JAK3 and pKi JAK1
[3] = TALL-1, IL-2 stimulated pSTAT5 in Tall-1 T cells
[4] = selectivity JAK3 over JAK1, difference of pKi
[5] = TALL-1, IL-2 stimulated pSTAT5, Tall-1 T cells

T2 sequence (O60674 whole entry): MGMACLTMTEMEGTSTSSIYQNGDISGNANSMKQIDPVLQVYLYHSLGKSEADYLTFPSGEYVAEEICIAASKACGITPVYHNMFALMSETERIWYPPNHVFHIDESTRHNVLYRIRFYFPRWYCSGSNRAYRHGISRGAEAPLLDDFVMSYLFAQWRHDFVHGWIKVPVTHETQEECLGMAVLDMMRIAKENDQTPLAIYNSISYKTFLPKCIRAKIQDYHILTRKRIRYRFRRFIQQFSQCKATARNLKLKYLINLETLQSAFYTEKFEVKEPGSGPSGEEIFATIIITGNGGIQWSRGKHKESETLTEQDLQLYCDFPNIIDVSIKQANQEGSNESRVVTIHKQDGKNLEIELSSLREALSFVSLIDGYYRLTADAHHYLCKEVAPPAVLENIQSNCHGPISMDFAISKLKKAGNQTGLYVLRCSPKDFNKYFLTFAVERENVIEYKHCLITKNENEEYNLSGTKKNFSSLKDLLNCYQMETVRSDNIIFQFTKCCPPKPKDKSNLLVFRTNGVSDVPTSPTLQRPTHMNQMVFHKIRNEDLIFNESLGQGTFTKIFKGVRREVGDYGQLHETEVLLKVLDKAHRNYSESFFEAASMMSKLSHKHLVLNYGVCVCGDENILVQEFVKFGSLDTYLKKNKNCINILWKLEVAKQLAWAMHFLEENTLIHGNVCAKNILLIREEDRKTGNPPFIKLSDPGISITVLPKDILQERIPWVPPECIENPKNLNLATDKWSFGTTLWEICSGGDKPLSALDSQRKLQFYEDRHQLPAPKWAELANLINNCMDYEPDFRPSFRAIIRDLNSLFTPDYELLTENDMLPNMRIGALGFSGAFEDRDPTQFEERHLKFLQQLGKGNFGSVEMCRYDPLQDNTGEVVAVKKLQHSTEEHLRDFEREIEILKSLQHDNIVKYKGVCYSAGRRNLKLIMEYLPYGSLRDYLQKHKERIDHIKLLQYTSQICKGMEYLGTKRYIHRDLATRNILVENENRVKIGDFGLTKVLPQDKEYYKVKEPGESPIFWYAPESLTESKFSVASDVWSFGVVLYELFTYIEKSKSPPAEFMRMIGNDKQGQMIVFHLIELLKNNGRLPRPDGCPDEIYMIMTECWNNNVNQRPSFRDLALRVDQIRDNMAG
T4 sequence (P29597 whole entry): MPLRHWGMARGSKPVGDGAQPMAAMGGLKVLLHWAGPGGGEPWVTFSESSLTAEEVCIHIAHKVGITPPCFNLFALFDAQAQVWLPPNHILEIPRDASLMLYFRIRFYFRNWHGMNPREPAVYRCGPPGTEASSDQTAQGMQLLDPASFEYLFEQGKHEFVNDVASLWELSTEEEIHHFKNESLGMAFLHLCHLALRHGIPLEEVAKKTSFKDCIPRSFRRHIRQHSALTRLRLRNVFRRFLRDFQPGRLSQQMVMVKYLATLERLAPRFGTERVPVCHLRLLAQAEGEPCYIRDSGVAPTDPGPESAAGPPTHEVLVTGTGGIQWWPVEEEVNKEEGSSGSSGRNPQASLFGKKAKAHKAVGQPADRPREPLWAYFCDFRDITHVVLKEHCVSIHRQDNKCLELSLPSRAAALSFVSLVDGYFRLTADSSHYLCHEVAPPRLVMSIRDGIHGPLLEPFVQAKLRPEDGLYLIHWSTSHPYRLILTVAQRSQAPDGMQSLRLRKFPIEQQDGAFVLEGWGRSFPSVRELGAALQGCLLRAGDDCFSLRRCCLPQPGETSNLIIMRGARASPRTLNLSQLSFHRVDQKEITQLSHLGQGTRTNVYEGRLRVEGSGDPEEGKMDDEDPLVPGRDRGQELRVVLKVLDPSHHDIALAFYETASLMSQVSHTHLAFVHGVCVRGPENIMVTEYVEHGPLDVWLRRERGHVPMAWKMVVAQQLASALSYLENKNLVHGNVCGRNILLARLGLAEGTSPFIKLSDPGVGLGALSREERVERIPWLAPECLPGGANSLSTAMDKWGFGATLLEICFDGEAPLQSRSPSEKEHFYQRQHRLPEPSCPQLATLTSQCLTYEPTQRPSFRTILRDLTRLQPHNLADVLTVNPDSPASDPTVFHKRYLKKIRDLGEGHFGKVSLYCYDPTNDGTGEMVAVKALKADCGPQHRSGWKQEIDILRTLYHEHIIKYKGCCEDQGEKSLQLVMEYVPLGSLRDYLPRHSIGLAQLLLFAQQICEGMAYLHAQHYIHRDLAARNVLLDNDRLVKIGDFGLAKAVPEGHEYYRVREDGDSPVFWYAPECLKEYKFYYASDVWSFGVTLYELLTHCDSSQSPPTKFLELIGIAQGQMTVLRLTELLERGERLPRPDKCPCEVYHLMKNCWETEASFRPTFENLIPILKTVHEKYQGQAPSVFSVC
T3 sequence (P23458 whole entry): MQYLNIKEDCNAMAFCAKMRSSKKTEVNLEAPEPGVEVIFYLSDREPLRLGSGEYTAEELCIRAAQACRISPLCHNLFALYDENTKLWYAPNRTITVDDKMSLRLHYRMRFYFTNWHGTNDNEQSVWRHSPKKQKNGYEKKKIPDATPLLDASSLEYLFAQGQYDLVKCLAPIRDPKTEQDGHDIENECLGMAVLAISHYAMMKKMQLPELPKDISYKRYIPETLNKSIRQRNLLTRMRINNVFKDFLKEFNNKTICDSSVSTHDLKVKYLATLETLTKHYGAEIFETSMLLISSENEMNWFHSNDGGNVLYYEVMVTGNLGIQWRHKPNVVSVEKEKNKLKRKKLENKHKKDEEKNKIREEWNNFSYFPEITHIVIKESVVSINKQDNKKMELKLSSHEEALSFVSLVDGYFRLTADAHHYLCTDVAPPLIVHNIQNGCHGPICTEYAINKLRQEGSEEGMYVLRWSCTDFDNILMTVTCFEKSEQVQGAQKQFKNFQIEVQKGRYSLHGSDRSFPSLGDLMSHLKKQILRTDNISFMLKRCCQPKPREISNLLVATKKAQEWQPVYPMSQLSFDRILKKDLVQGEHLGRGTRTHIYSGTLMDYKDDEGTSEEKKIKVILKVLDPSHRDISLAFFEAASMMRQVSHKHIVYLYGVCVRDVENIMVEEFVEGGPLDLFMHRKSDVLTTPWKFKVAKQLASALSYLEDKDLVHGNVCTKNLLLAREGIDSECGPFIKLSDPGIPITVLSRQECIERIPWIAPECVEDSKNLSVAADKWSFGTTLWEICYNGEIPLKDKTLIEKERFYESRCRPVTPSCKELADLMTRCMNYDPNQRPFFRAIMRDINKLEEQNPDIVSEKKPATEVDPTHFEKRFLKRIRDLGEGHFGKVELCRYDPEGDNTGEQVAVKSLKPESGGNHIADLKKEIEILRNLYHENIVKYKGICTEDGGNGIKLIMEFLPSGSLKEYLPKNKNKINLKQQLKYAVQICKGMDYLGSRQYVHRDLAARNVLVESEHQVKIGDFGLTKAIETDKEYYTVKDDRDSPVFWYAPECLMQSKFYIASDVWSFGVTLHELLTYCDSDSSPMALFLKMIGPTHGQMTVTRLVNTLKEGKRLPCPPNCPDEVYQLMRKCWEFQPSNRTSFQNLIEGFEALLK

| SMILES | Ki (JAK3) [nM] | JAK3 (pKi)-JAK1 (pKi) (JAK3; [2]) | Ki (JAK2) [nM] | Ki (JAK1) [nM] | IC50 [1, 3] [nM] | Ki (Tyk2) [nM] | JAK3 (pKi)-JAK1 (pKi) (JAK3; [4]) | IC50 [1, 5] [nM] | JAK 3 (pKi) (JAK3) | JAK 2 (pKi) (JAK2) | JAK 1 (pKi) (JAK1) | Tall-1 (pIC50) [1] | Tyk 2 (pKi) (Tyk2) |
| --- | --- | --- | --- | --- | --- | --- | --- | --- | --- | --- | --- | --- | --- |
| C=CC(=O)N1CC(C(C)Oc2nc(-c3ccc(O)cc3)nc3[nH]ncc23)C1 (stereo not drawn) [Compound 3-77] | < 0.1 | A (a value of 3 or above) | > 100 | > 100 | 31.6 to 200 | > 100 | – | – | – | – | – | – | – |
| C=CC(=O)N1C[C@H](C(=O)Nc2cc(-c3ccc(O)cc3)cc3[nH]ncc23)OC[C@@H]1C [Compound 12-60] | 0.1 to 1 | – | > 100 | > 100 | – | > 100 | A (a value of 3 or above) | 31.6 to 200 | – | – | – | – | – |
| C=CC(=O)N1CC(F)(C(=O)Nc2cc(-c3ccc(O)cc3)cc3[nH]ncc23)C1 [Compound 12-48] | 0.1 to 1 | – | > 100 | > 100 | – | > 100 | A (a value of 3 or above) | < 31.6 | – | – | – | – | – |
| C=CC(=O)N1CC(C#N)(C(=O)Nc2cc(-c3ccc(O)cc3)cc3[nH]ncc23)C1 [Compound 12-47] | 0.1 to 1 | – | > 100 | > 100 | – | > 100 | A (a value of 3 or above) | 31.6 to 200 | – | – | – | – | – |
| C=CC(=O)N1CC[C@H](Oc2cc(-c3ccc(O)cc3)cc3[nH]ncc23)C1 [Compound 1-2] | < 0.1 | A (a value of 3 or above) | 10 to 100 | > 100 | < 31.6 | > 100 | – | – | – | – | – | – | – |
| CN(C)C/C=C/C(=O)N1CC(Oc2cc(-c3ccc(O)c(F)c3)cc3[nH]ncc23)C1 [Compound 5-5] | – | A (a value of 3 or above) | – | – | – | – | – | – | A (a pKi value≥10 (Ki≤0.1 nM)) | D (a pKi value between 7 and 8 (Ki between 100 nM and 10 nM)) | E (a pKi value of 7 or below (Ki of 100 nM or above)) | B (a pIC50 value between 6.7 (included) and 7.5 (IC50 between 200 nM and 32 nM)) | E (a pKi value of 7 or below (Ki of 100 nM or above)) |
| COCCN(C/C=C/C(=O)N1CC(COc2cc(-c3ccc(O)cc3)cc3[nH]ncc23)C1)CCOC [Compound 3-120] | < 0.1 | A (a value of 3 or above) | 10 to 100 | > 100 | 31.6 to 200 | > 100 | – | – | – | – | – | – | – |
| CN(C)C/C=C/C(=O)N1CC(C)(COc2nc(-c3ccc(O)c(F)c3)cc3[nH]ncc23)C1 [Compound 3-96] | – | A (a value of 3 or above) | – | – | – | – | – | – | B (a pKi value between 9 and 10 (Ki between 1 nM and 0.1 nM)) | E (a pKi value of 7 or below (Ki of 100 nM or above)) | E (a pKi value of 7 or below (Ki of 100 nM or above)) | B (a pIC50 value between 6.7 (included) and 7.5 (IC50 between 200 nM and 32 nM)) | E (a pKi value of 7 or below (Ki of 100 nM or above)) |
| CN(C)C/C=C/C(=O)N1CC(F)(COc2nc(-c3ccc(O)cc3)nc3[nH]ncc23)C1 [Compound 3-88] | 0.1 to 1 | A (a value of 3 or above) | > 100 | > 100 | 31.6 to 200 | > 100 | – | – | – | – | – | – | – |
| C=CC(=O)N1CCC(COc2cc(-c3ccc(O)cc3)cc3[nH]ncc23)CC1 [Compound 12-27] | < 0.1 | – | 10 to 100 | > 100 | – | > 100 | A (a value of 3 or above) | < 31.6 | – | – | – | – | – |
| C=CC(=O)N1CCC(Oc2cc(-c3ccc(O)c(Cl)c3)nc3[nH]ncc23)CC1 [Compound 6-17] | < 0.1 | – | > 100 | > 100 | – | > 100 | A (a value of 3 or above) | 31.6 to 200 | – | – | – | – | – |
| CN(C)C/C=C/C(=O)N1CC(C#N)(COc2cc(-c3ccc(O)c(Cl)c3)cc3[nH]ncc23)C1 [Compound 3-21] | 0.1 to 1 | A (a value of 3 or above) | > 100 | > 100 | < 31.6 | > 100 | – | – | – | – | – | – | – |
